Reference: a melting point compilation (Tetko et al.)

Row | Compound | melting point
1 | CC(C)(C)OC(=O)NCC1CC2CCCC(C1)N2 (configuration not stated) | 219 to 221 °C
2 | COc1ccc(-c2csc(C)n2)cc1OC | 74 to 76 °C
3 | Oc1ccnc2cc(Cl)c(Br)cc12 | 369 to 371 °C
4 | CCN1CCN(c2ccc(N)cc2)CC1 | 70 to 72 °C
5 | Cc1sc([N+](=O)[O-])cc1[N+](=O)[O-] | 81 to 83 °C
6 | O=C(O)C1CCCN1C(=O)c1ccco1 (configuration not stated) | 185 to 187 °C
7 | NNC(=O)Nc1ccc(CCO)cc1 | 149 to 151 °C
8 | NC(C(=O)O)c1cccc(F)c1 (configuration not stated) | 273 to 275 °C
9 | Cc1ccc(S(=O)(=O)N2CCC(N)CC2)cc1 | 105 to 109 °C
10 | Cc1[nH]c(C(=O)O)c(C)c1C | 80 to 82 °C
11 | O=Cc1ccc(Br)nc1 | 104 to 110 °C
12 | ClCc1csc(-c2ccco2)n1 | 76 to 78 °C
13 | CC(C)(C)c1ccc2c(c1)C(=O)C(=O)N2 | 145 to 147 °C
14 | CNc1nc(C)cs1 | 69 to 71 °C
15 | CCOC(=O)c1sc(N)c(C#N)c1CBr | 206 to 208 °C
16 | CCCOc1ccc(C(=O)O)cc1N | 122 to 124 °C
17 | CCOC(=O)/C(=C(/O)C(C)Cl)c1nc(C)cs1 (configuration not stated) | 123 to 125 °C
18 | CCN(CC)S(=O)(=O)c1cc(C(=O)O)n(C)c1 | 174 to 176 °C
19 | COc1cc(C(=O)O)ccc1OCc1c(C)noc1C | 216 to 218 °C
20 | COc1cc(C=O)cc(OC)c1OCC(N)=O | 165 to 167 °C
21 | O=C(O)c1cnn(Cc2ccccc2Cl)c1 | 144 to 146 °C

Row | Compound | melting point
22 | C1Cc2nnc(C3CCNCC3)n2C1 | 126 to 128 °C
23 | Cc1cc(C=O)c(C)n1-c1ccc(F)c(F)c1F | 89 to 91 °C
24 | N#Cc1cc([N+](=O)[O-])ccc1O | 196 to 198 °C
25 | O=Cc1csc(-c2cccs2)n1 | 80 to 82 °C
26 | Nc1ccc(OCCO)cc1C(F)(F)F | 73 to 75 °C
27 | CC(Cl)C(=O)NCCc1cccs1 (configuration not stated) | < 17 °C
28 | CN(C)c1ncnc(Cl)c1C=O | 141 to 143 °C
29 | COC(=O)c1ccc(S)cc1 | 53 to 55 °C
30 | CCOc1cc2c(cc1OCC)CNCC2 | 108 to 110 °C
31 | Clc1ccc(CN2CCNCC2)cn1 | 89 to 91 °C
32 | CC(C)C1OC(N)=NC1=O (configuration not stated) | 219 to 221 °C
33 | C=CCNS(=O)(=O)c1cc(C(=O)O)ccc1F | 164 to 166 °C
34 | O=C(O)c1cnc(-c2ncccn2)s1 | 217 to 219 °C
35 | O=C1CNC(=O)N1Cc1ccc(Cl)c([N+](=O)[O-])c1 | 183 to 185 °C
36 | CN(C)S(=O)(=O)c1ccc(NC(=O)CCl)cc1 | 115 to 117 °C
37 | COc1ccc(Cl)cc1N1CC(C(=O)O)CC1=O (configuration not stated) | 150 to 155 °C
38 | O=Cc1nccn1CC(F)(F)F | 50 to 52 °C
39 | CC(C)C(NC(=O)c1ccccc1F)C(=O)O (configuration not stated) | 116 to 118 °C
40 | CCOC(=O)c1cncnc1O | 179 to 181 °C
41 | COc1ccc(CC#N)cn1 | 49 to 51 °C
42 | Nc1ccc2[nH]c(=O)sc2c1 | 221 to 223 °C

Row | Compound | melting point
43 | CC(C)(C)OC(=O)NC1(C(=O)O)CCOC(C)(C)C1 (configuration not stated) | 176 to 178 °C
44 | CCCn1c(C)nnc1S | 129 to 131 °C
45 | COc1ccc2c(c1)C(=O)CCC2 | 55 to 59 °C
46 | CCS(=O)(=O)Nc1ccc(C(=O)O)cn1 | 236 to 238 °C
47 | Cc1ccc2oc(-c3nnc(S)n3N)cc2c1 | 228 to 230 °C
48 | N#CC(C(=O)N1CCCCC1)c1ccc(C(F)(F)F)cn1 (configuration not stated) | 137 to 139 °C
49 | CCOC(=O)c1cc2ccc(Br)cc2[nH]1 | 187 to 189 °C
50 | c1cn2c(n1)CN(C1CCNCC1)CC2 | 63 to 65 °C
51 | CNC(C(=O)O)c1ccc(F)cc1 (configuration not stated) | 276 to 278 °C
52 | O=c1c(Cl)c(Cl)cnn1-c1ccc(C(F)(F)F)cn1 | 111 to 115 °C
53 | O=C1NC(=O)C(CCS)N1 (configuration not stated) | 133 to 135 °C
54 | CC(Cl)C(=O)Nc1ccc([N+](=O)[O-])cc1 (configuration not stated) | 138 to 140 °C
55 | CN(C)c1nc2cc(C#N)ccc2o1 | 203 to 205 °C
56 | CCCNCC(=O)Nc1ccc(Cl)cc1 | 44 to 46 °C
57 | CC1CN(c2ccc(N)cc2F)CC(C)O1 (configuration not stated) | 116 to 118 °C
58 | C=CS(=O)(=O)c1cc(F)cc([N+](=O)[O-])c1 | 90 to 92 °C
59 | O=c1[nH]nc2ccc(Cl)nn12 | 269 to 271 °C
60 | COc1ccc2c(c1)c(C(=O)O)c(C)n2C1CC1 | 199 to 201 °C
61 | CC(=O)NC(CC(=O)O)c1ccc(F)cc1F (configuration not stated) | 149 to 151 °C
62 | Nc1ncn(C2CCCCC2)n1 | 129 to 131 °C
63 | CC(C)(C)CNC(=O)c1ccc(C(=O)O)cc1 | 201 to 203 °C

The remaining lines, values ahead:

Row | melting point | Compound
64 | 118 to 120 °C | Nc1ccc(-c2cn3ccccc3n2)cc1
65 | 150 to 152 °C | O=C1CN(Cc2ccccc2)CCN1
66 | 51 to 53 °C | NCc1ccc(Oc2ccc(F)cc2)nc1
67 | 81 to 83 °C | CC1(C)CCC(CC(=O)O)c2ccccc21 (configuration not stated)
68 | 201 to 204 °C | O=c1ccc(-c2ccccc2)n[nH]1
69 | 61 to 63 °C | NCc1cn(-c2ccccc2)nc1-c1ccccc1
70 | 163 to 165 °C | Cc1ccc(NCCc2ccc(Cl)cc2)nn1
71 | 204 to 206 °C | NC(=S)Cn1nc2ccccn2c1=O
72 | 146 to 148 °C | CN(c1ccccc1C(=O)O)S(C)(=O)=O
73 | 149 to 151 °C | COc1ccccc1C1(C(=O)O)CCC1
74 | 132 to 134 °C | O=C(O)COc1ccc2oc3ccccc3c2c1
75 | 229 to 231 °C | O=C(O)c1ccc(N/N=C/c2cccc(F)c2)cc1
76 | 248 to 250 °C | Nc1nnc(C(=O)NCc2ccccc2)[nH]1
77 | 177 to 179 °C | Nc1ncc(Cc2ccc(S(N)(=O)=O)cc2)s1
78 | 143 to 145 °C | N#Cc1ccc(Oc2cccc(Cl)c2Cl)nc1
79 | 244 to 246 °C | NC(=O)N1CC=C(c2ccc(O)cc2)CC1
80 | 148 to 152 °C | Cc1ccc2c(CC(=O)O)coc2c1C
81 | 61 to 63 °C | O=C(NCCO)c1ccccc1C(F)(F)F
82 | 121 to 123 °C | Cc1cccc(N2CCN(c3ccc(C#N)cn3)CC2)c1
83 | 100 to 102 °C | Sc1nc(-c2ccccc2Cl)no1

Row | melting point | Compound
84 | 182 to 184 °C | O=C(O)c1ccc(Oc2ccccc2Br)nc1
85 | 120 to 122 °C | CCOC(=O)c1sc(NCCCC(=O)O)nc1-c1ccccc1
86 | 94 to 95 °C | CCOc1ccc(NS(=O)(=O)c2ccc(OC)c(N)c2)cc1
87 | 66 to 70 °C | CCc1cccc(OCC(=O)O)c1
88 | 137 to 139 °C | Nc1c(-c2ccc(F)cc2)nc2sccn12
89 | 168 to 170 °C | O=C(NCCc1ccc(O)cc1)c1ccc(Cl)cc1
90 | 241 to 243 °C | O=C(O)c1ccnc(Oc2ccccc2)c1
91 | 218 to 220 °C | O=C(O)c1ccc(Oc2ccc(C(F)(F)F)cn2)cc1
92 | 57 to 59 °C | COc1cc(OC)cc(Oc2ccc(C=O)cc2)c1
93 | 66 to 68 °C | CNc1ccccc1C#N
94 | 175 to 177 °C | O=C(O)Cc1csc(-c2ccc3c(c2)OCO3)n1
95 | 131 to 133 °C | Cc1[nH]n(-c2ccc(Br)cc2)c(=N)c1C
96 | 170 to 172 °C | Cc1c(-c2csc(N)n2)sc2ccccc12
97 | 130 to 132 °C | COC(=O)C(Cc1c[nH]c2ccccc12)NC(=O)CCl (configuration not stated)
98 | 259 to 261 °C | NC(=S)c1cccc(-c2nnc(N)o2)c1
99 | 99 to 101 °C | CCc1cc(Cl)nc(-c2ccncc2)n1
100 | 182 to 184 °C | O=C1C(=O)N(Cc2ccc(Br)cc2)c2ccccc21
101 | 233 to 235 °C | O=C(O)C1CNCc2ccccc21 (configuration not stated)
102 | 79 to 81 °C | Nc1cnn(-c2ccccn2)c1
